The record followed here is paper PMC6964667 (2020).

Each structure is given as a SMILES string.

The subject of assay [1] is D2 (DNA, hairpin) CATTGTTAGACTTTTTGTCTAACAATG
Put plainly: CD titration (ICD). The settings on record: 10 mM KCl, 10 mM MgCl2, 5 mM CaCl2, 10 μM DNA.

In assay [2] the test system is D2' (DNA, hairpin) CATTGTCAGACTTTTTGTCTGACAATG
Put plainly: CD titration (ICD). The settings on record: 10 mM KCl, 10 mM MgCl2, 5 mM CaCl2, 10 μM DNA.

Assay [3] relates to D2 (DNA, hairpin) CATTGTTAGACTTTTTGTCTAACAATG
Kind of assay: CD/UV melting at 260 nm. The following applies: 10 mM KCl, 10 mM MgCl2, 5 mM CaCl2; sodium dimethyl arsinate pH 6.9, 6% DMSO; 3.9 equiv compound, 8.87 μM DNA.

Assay [4] concerns D2' (DNA, hairpin) CATTGTCAGACTTTTTGTCTGACAATG
Kind of assay: CD/UV melting at 260 nm. The following applies: 10 mM KCl, 10 mM MgCl2, 5 mM CaCl2; sodium dimethyl arsinate pH 6.9, 6% DMSO; 3.6 equiv compound, 8.87 μM DNA.

For assay [5], the system named is D1' (DNA, hairpin) CATTGTTAGCCTTTTTGGCTAACAATG
Kind of assay: CD titration (ICD). The settings on record: 10 mM KCl, 10 mM MgCl2, 5 mM CaCl2, 10 μM DNA.

Assay [6] deals with D1 (DNA, hairpin) CATTGTCAGCCTTTTTGGCTGACAATG
Kind of assay: CD titration (ICD). The settings on record: 10 mM KCl, 10 mM MgCl2, 5 mM CaCl2, 10 μM DNA.

For assay [7] the test system is unchanged. Put plainly: CD/UV melting at 260 nm. The following applies: 10 mM KCl, 10 mM MgCl2, 5 mM CaCl2; sodium dimethyl arsinate pH 6.9, 6% DMSO; 3.3 equiv compound, 8.87 μM DNA.
The test system of assay [8] is D1' (DNA, hairpin) CATTGTTAGCCTTTTTGGCTAACAATG
Kind of assay: CD/UV melting at 260 nm. The following applies: 10 mM KCl, 10 mM MgCl2, 5 mM CaCl2; sodium dimethyl arsinate pH 6.9, 6% DMSO; 3.3 equiv compound, 8.87 μM DNA.

Assay [9] deals with D3' (DNA, hairpin) CATTGTTATGCCTTTTTGGCATAACAATG
Kind of assay: CD titration (ICD). The settings on record: 10 mM KCl, 10 mM MgCl2, 5 mM CaCl2, 10 μM DNA.

The subject of assay [10] is D3 (DNA, hairpin) CATTGTCATGCCTTTTTGGCATGACAATG
Kind of assay: CD titration (ICD). The following applies: 10 mM KCl, 10 mM MgCl2, 5 mM CaCl2, 10 μM DNA.

Assay [11] shares this test system. Kind of assay: CD/UV melting at 260 nm. The settings on record: 10 mM KCl, 10 mM MgCl2, 5 mM CaCl2; sodium dimethyl arsinate pH 6.9, 6% DMSO; 3.3 equiv compound, 8.87 μM DNA.
For assay [12], the system named is D3' (DNA, hairpin) CATTGTTATGCCTTTTTGGCATAACAATG
Kind of assay: CD/UV melting at 260 nm. The settings on record: 10 mM KCl, 10 mM MgCl2, 5 mM CaCl2; sodium dimethyl arsinate pH 6.9, 6% DMSO; 3.7 equiv compound, 8.87 μM DNA.

Where [13] appears, read: 10 mM sodium dimethyl arsinate pH 6.9, 20 °C, up to 4.8 equiv, no ICD.
Setting [14] is: 10 mM sodium dimethyl arsinate pH 6.9, up to 6% DMSO, 20 °C, saturation not reached.
The mark [15] stands for this setting: 10 mM sodium dimethyl arsinate pH 6.9, up to 6% DMSO, 20 °C.

What is called KD is the constant that tells how readily two partners part at equilibrium. The low end stands for a tighter complex, the high end for a looser complex.

With `CN(C)CCCNC(=O)CCNC(=O)c1cc(NC(=O)c2cc(NC(=O)c3cc(NC(=O)Cc4cccc(/N=N/c5cccc(CNC(=O)c6cc(NC(=O)c7cc(NC(=O)c8nccn8C)cn7C)cn6C)c5)c4)cn3C)cn2C)cn1C`, the binding result in [1] (setting [13]) and in [2] (setting [13]) was “no” in each case.
On to `CN(C)CCCNC(=O)CCNC(=O)c1cc(NC(=O)c2cc(NC(=O)c3cc(NC(=O)Cc4cccc(/N=N\c5cccc(CNC(=O)c6cc(NC(=O)c7cc(NC(=O)c8nccn8C)cn7C)cn6C)c5)c4)cn3C)cn2C)cn1C`, for which the ΔTm in [3] was found to be 2.0 K; in assay [4], 1.4 K. The KD in assay [1] (setting [14]) turned out to be 52.3 ± 21.0 µM; in assay [2] (setting [15]), 42.2 ± 6.3 µM.
Consider `CN(C)CCCNC(=O)CCNC(=O)c1cc(NC(=O)c2cc(NC(=O)c3nc(NC(=O)Cc4cccc(/N=N/c5cccc(CNC(=O)c6cc(NC(=O)c7cc(NC(=O)c8nccn8C)cn7C)cn6C)c5)c4)cn3C)cn2C)cn1C`, for which the binding result in assay [5] (setting [13]) and in assay [6] (setting [13]) was “no” in each case.
For the compound `CN(C)CCCNC(=O)CCNC(=O)c1cc(NC(=O)c2cc(NC(=O)c3nc(NC(=O)Cc4cccc(/N=N\c5cccc(CNC(=O)c6cc(NC(=O)c7cc(NC(=O)c8nccn8C)cn7C)cn6C)c5)c4)cn3C)cn2C)cn1C`, the ΔTm is reported as 3.5 K in [7] and 2.1 K in assay [8]. Besides, the KD in assay [5] (setting [15]) amounted to 13.2 ± 7.8 µM; in assay [6] (setting [15]), 11.8 ± 6.0 µM.
For the compound `CN(C)CCCNC(=O)CCNC(=O)c1cc(NC(=O)c2cc(NC(=O)c3nc(NC(=O)c4cc(NC(=O)Cc5cccc(/N=N/c6cccc(CNC(=O)c7cc(NC(=O)c8cc(NC(=O)c9cc(NC(=O)c%10nccn%10C)cn9C)cn8C)cn7C)c6)c5)cn4C)cn3C)cn2C)cn1C`, the binding result in assay [9] (setting [13]) and in assay [10] (setting [13]) was “no” each time.
As to `CN(C)CCCNC(=O)CCNC(=O)c1cc(NC(=O)c2cc(NC(=O)c3nc(NC(=O)c4cc(NC(=O)Cc5cccc(/N=N\c6cccc(CNC(=O)c7cc(NC(=O)c8cc(NC(=O)c9cc(NC(=O)c%10nccn%10C)cn9C)cn8C)cn7C)c6)c5)cn4C)cn3C)cn2C)cn1C`, the KD worked out at 52.9 ± 29.6 µM in assay [9] (setting [14]) and 21.3 ± 11.2 µM in assay [10] (setting [15]). For the same compound, the results for the ΔTm in assay [11] and in assay [12] were 3.5 K and 0.4 K, respectively.
